Starred links: 1 amine or outer side, 2 acyl side, 3 side chain; linkers in the order of their positions; H or OH if unused. Positions of bridges follow the written chain, without caps; N, C: chain ends. Non-standard residues stand in square brackets, D forms with d. Residues, ends and D or L forms follow the SMILES beside them. *: point of attachment. NMeF = CN[C@@H](Cc1ccccc1)C(=O)O; NMeGABA = CN(CCCC(=O)[*:2])[*:1]; NMeI = CC[C@H](C)[C@H](NC)C(=O)O; NMeT = CN[C@H](C(=O)O)[C@@H](C)O; hPhe = N[C@@H](CCc1ccccc1)C(=O)O; NMeβAla = CN(CCC(=O)[*:2])[*:1]; NMeL = CN[C@@H](CC(C)C)C(=O)O; dNMeV = CN[C@@H](C(=O)O)C(C)C; NMeV = CN[C@H](C(=O)O)C(C)C; NMeAbu = CC[C@H](NC)C(=O)O; NMeA = CN[C@@H](C)C(=O)O; Piperidide = C1CCN(*)CC1; Abu = CC[C@H](N)C(=O)O; NBuGly = CCCCNCC(=O)O; βAla = NCCC(=O)O; Sar = CNCC(=O)O; tBu = CC(C)(C)*
Legend:
[1] = Metabolic stability test: liver microsomal stability assay; type: in vitro ADME, mouse; conditions: mouse liver microsomes 0.5 mg protein/mL, compound 1 µM; for microsomal CLint at 1 µM: male, pH 7.4, presence of NADPH, read-out: Mouse Hepatic Microsome CLh,int NADPH(+); for Mouse Hepatic Microsome CLh,int NADPH(-): absence of NADPH
[2] = Membrane permeability test using Caco-2 cells with preincubation; type: in vitro ADME; conditions: Caco-2; preincubation 20 to 24 hours; Apical FaSSIF/HBSS pH 6.0, Basal HBSS 4% BSA pH 7.4; 180 minutes; read-out: Caco2 Papp
Caco-2 cells = test: as above; type: in vitro ADME; conditions: Caco-2 cells, preincubation 20 to 24 hours; apical FaSSIF/HBSS 1% DMSO pH 6.0, basal HBSS 4% BSA pH 7.4; basal sample at 180 minutes

CC(C)C[C@@H]1NC(=O)[C@H](C(C)C)N(C)C(=O)[C@H](Cc2ccccc2)N(C)C(=O)[C@H](CC(C)C)NC(=O)[C@H](CC(C)C)N(C)C(=O)[C@H](C)N(C)C(=O)[C@H]([C@@H](C)O)NC(=O)[C@H](CC(C)C)N(C)C(=O)[C@H](C(C)C)N(C)C(=O)[C@H](CC(C)C)NC(=O)[C@H](Cc2ccccc2)N(C)C(=O)[C@@H](C(C)C)N(C)C(=O)C[C@@H](C(=O)N2CCCCC2)NC1=O [pd108] ([dNMeV][NMeF]L[NMeV][NMeL]T[NMeA][NMeL]L[NMeF][NMeV]LD-Piperidide; lactam N-13)
microsomal CLint at 1 µM [1]: 39.9 µL/min/mg
Mouse Hepatic Microsome CLh,int NADPH(-) [1]: 35.5 µL/min/mg Protein
Papp A→B [2]: 0.03 ×10⁻⁶ cm/s
Caco2 Papp (10^-6 cm/sec) (Caco-2 cells): 0.03 10^-6 cm/sec

CC[C@@H]1NC(=O)[C@H](Cc2ccccc2)N(C)C(=O)[C@H](C)N(C)C(=O)[C@H](CC(C)C)N(C)C(=O)[C@H](CC(C)C)NC(=O)CCCN(C)C(=O)C[C@@H](C(=O)N2CCCCC2)NC(=O)[C@H](CC(C)C)N(C)C(=O)[C@H](C)N(C)C(=O)[C@H]([C@@H](C)O)NC(=O)[C@H](CC(C)C)N(C)C(=O)[C@H](COC(C)(C)C)NC(=O)[C@H](Cc2ccccc2)N(C)C1=O [pd109] ([NMeGABA]L[NMeL][NMeA][NMeF][Abu][NMeF]S(tBu)[NMeL]T[NMeA][NMeL]D-Piperidide; lactam N-13)
microsomal CLint at 1 µM [1]: 40.6 µL/min/mg
Mouse Hepatic Microsome CLh,int NADPH(-) [1]: 30.3 µL/min/mg Protein
Papp A→B [2]: 0.83 ×10⁻⁶ cm/s
Caco2 Papp (10^-6 cm/sec) (Caco-2 cells): 0.83 10^-6 cm/sec

CC[C@H](C)[C@@H]1NC(=O)[C@H](C)N(C)C(=O)[C@H]([C@@H](C)O)NC(=O)[C@H](Cc2ccccc2)N(C)C(=O)[C@H](COC(C)(C)C)NC(=O)[C@H](CC(C)C)N(C)C(=O)CN(C)C(=O)[C@H](Cc2ccccc2)N(C)C(=O)[C@H]([C@@H](C)CC)NC(=O)[C@H](CC(C)C)N(C)C(=O)CCN(C)C(=O)C[C@@H](C(=O)N2CCCCC2)NC(=O)[C@H](CC(C)C)N(C)C1=O [pd110] ([NMeβAla][NMeL]I[NMeF][Sar][NMeL]S(tBu)[NMeF]T[NMeA]I[NMeL]D-Piperidide; lactam N-13)
microsomal CLint at 1 µM [1]: 38.5 µL/min/mg
Mouse Hepatic Microsome CLh,int NADPH(-) [1]: 30.5 µL/min/mg Protein
Papp A→B [2]: 0.43 ×10⁻⁶ cm/s
Caco2 Papp (10^-6 cm/sec) (Caco-2 cells): 0.43 10^-6 cm/sec

CCCCN1CC(=O)N[C@@H](CC(C)C)C(=O)N(C)[C@@H]([C@@H](C)CC)C(=O)N(C)[C@@H]([C@@H](C)O)C(=O)N(C)[C@@H](Cc2ccccc2)C(=O)N[C@@H]([C@@H](C)CC)C(=O)N(C)[C@@H](CC(C)C)C(=O)N[C@H](C(=O)N2CCCCC2)CC(=O)N(C)[C@@H](C)C(=O)N[C@@H](CC(C)C)C(=O)N(C)[C@@H](CC(C)C)C(=O)N(C)[C@@H](Cc2ccccc2)C(=O)N[C@@H](CC)C1=O [pd111] ([NMeA]L[NMeL][NMeF][Abu][NBuGly]L[NMeI][NMeT][NMeF]I[NMeL]D-Piperidide; lactam N-13)
microsomal CLint at 1 µM [1]: 18.7 µL/min/mg
Mouse Hepatic Microsome CLh,int NADPH(-) [1]: 28.4 µL/min/mg Protein
Papp A→B [2]: 0.04 ×10⁻⁶ cm/s
Caco2 Papp (10^-6 cm/sec) (Caco-2 cells): 0.04 10^-6 cm/sec

CC[C@@H]1NC(=O)[C@H](CC(C)C)N(C)C(=O)[C@H](Cc2ccccc2)N(C)C(=O)[C@H](CC(C)C)N(C)C(=O)[C@H](C)NC(=O)C[C@@H](C(=O)N2CCCCC2)NC(=O)[C@H](C(C)C)N(C)C(=O)[C@@H]2CCCN2C(=O)CCN(C)C(=O)[C@H](CC(C)C)NC(=O)[C@H]([C@@H](C)CC)N(C)C(=O)[C@H]([C@@H](C)O)NC(=O)[C@H](Cc2ccccc2)N(C)C1=O [pd112] (A[NMeL][NMeF][NMeL][Abu][NMeF]T[NMeI]L[NMeβAla]P[NMeV]D-Piperidide; lactam N-13)
microsomal CLint at 1 µM [1]: 30.5 µL/min/mg
Mouse Hepatic Microsome CLh,int NADPH(-) [1]: 21.2 µL/min/mg Protein
Papp A→B [2]: 0.35 ×10⁻⁶ cm/s
Caco2 Papp (10^-6 cm/sec) (Caco-2 cells): 0.35 10^-6 cm/sec

CC[C@H](C)[C@H]1C(=O)N[C@@H]([C@@H](C)O)C(=O)N(C)CC(=O)N(C)[C@@H](CC(C)C)C(=O)N[C@@H](CC(C)C)C(=O)N[C@H](C(=O)N2CCCCC2)CC(=O)N(C)[C@@H](C)C(=O)N[C@@H](CC(C)C)C(=O)N(C)[C@@H](CC(C)C)C(=O)N(C)CCC(=O)N(C)[C@@H](Cc2ccccc2)C(=O)NCCC(=O)N(C)[C@@H](Cc2ccccc2)C(=O)N1C [pd113] ([NMeA]L[NMeL][NMeβAla][NMeF][βAla][NMeF][NMeI]T[Sar][NMeL]LD-Piperidide; lactam N-13)
microsomal CLint at 1 µM [1]: 24.4 µL/min/mg
Mouse Hepatic Microsome CLh,int NADPH(-) [1]: 16.4 µL/min/mg Protein
Papp A→B [2]: 0.2 ×10⁻⁶ cm/s
Caco2 Papp (10^-6 cm/sec) (Caco-2 cells): 0.20 10^-6 cm/sec

CC[C@H](C)[C@@H]1NC(=O)[C@H](Cc2ccccc2)N(C)C(=O)CN(C)C(=O)C[C@@H](C(=O)N2CCCCC2)NC(=O)[C@H]([C@@H](C)CC)N(C)C(=O)[C@H](COC(C)(C)C)NC(=O)[C@@H]2CCCN2C(=O)[C@H](CCc2ccccc2)NC(=O)[C@H](CC)N(C)C(=O)[C@H](CC(C)C)NC(=O)[C@H](CC(C)C)N(C)C(=O)[C@H]([C@@H](C)O)N(C)C(=O)[C@H](CC(C)C)N(C)C1=O [pd114] ([Sar][NMeF]I[NMeL][NMeT][NMeL]L[NMeAbu][hPhe]PS(tBu)[NMeI]D-Piperidide; lactam N-13)
microsomal CLint at 1 µM [1]: 35.6 µL/min/mg
Mouse Hepatic Microsome CLh,int NADPH(-) [1]: 29.2 µL/min/mg Protein
Papp A→B [2]: 0.16 ×10⁻⁶ cm/s
Caco2 Papp (10^-6 cm/sec) (Caco-2 cells): 0.16 10^-6 cm/sec

CC[C@H](C)[C@@H]1NC(=O)[C@H](CC(C)C)N(C)C(=O)CN(C)C(=O)C[C@@H](C(=O)N2CCCCC2)NC(=O)[C@H](C)N(C)C(=O)CNC(=O)[C@H](C(C)C)N(C)C(=O)[C@H](C)N(C)C(=O)[C@H](Cc2ccccc2)N(C)C(=O)[C@H](CC(C)C)NC(=O)[C@H](Cc2ccccc2)N(C)C(=O)[C@H]([C@@H](C)O)NC(=O)[C@H](CC(C)C)N(C)C1=O [pd115] ([Sar][NMeL]I[NMeL]T[NMeF]L[NMeF][NMeA][NMeV]G[NMeA]D-Piperidide; lactam N-13)
microsomal CLint at 1 µM [1]: 24.9 µL/min/mg
Mouse Hepatic Microsome CLh,int NADPH(-) [1]: 12.3 µL/min/mg Protein
Papp A→B [2]: 0.09 ×10⁻⁶ cm/s
Caco2 Papp (10^-6 cm/sec) (Caco-2 cells): 0.09 10^-6 cm/sec

CC(C)C[C@@H]1NC(=O)[C@H]([C@@H](C)O)N(C)C(=O)[C@@H](C(C)C)NC(=O)C[C@@H](C(=O)N2CCCCC2)NC(=O)[C@H](C(C)C)N(C)C(=O)[C@H](C)N(C)C(=O)[C@H](Cc2ccccc2)N(C)C(=O)[C@@H]2CCCN2C(=O)[C@H](CC(C)C)N(C)C(=O)CN(C)C(=O)[C@H](CCc2ccccc2)NC(=O)[C@H](CC(C)C)N(C)C(=O)[C@H](C(C)C)N(C)C1=O [pd116] ([dV][NMeT]L[NMeV][NMeL][hPhe][Sar][NMeL]P[NMeF][NMeA][NMeV]D-Piperidide; lactam N-13)
microsomal CLint at 1 µM [1]: 19.2 µL/min/mg
Mouse Hepatic Microsome CLh,int NADPH(-) [1]: 14.9 µL/min/mg Protein
Papp A→B [2]: 0.19 ×10⁻⁶ cm/s
Caco2 Papp (10^-6 cm/sec) (Caco-2 cells): 0.19 10^-6 cm/sec

CC[C@H]1C(=O)N(C)[C@@H](CC(C)C)C(=O)N[C@@H]([C@@H](C)O)C(=O)N(C)[C@@H](C)C(=O)N(C)[C@@H](CC(C)C)C(=O)N[C@H](C(=O)N2CCCCC2)CC(=O)N(C)CCCC(=O)N[C@@H](CC(C)C)C(=O)N(C)[C@@H](CC(C)C)C(=O)N(C)[C@@H](C)C(=O)N(C)[C@@H](Cc2ccccc2)C(=O)N[C@@H](C)C(=O)N(C)[C@@H](Cc2ccccc2)C(=O)N1C [pd117] ([NMeGABA]L[NMeL][NMeA][NMeF]A[NMeF][NMeAbu][NMeL]T[NMeA][NMeL]D-Piperidide; lactam N-13)
microsomal CLint at 1 µM [1]: 25.9 µL/min/mg
Mouse Hepatic Microsome CLh,int NADPH(-) [1]: 14.4 µL/min/mg Protein
Papp A→B [2]: 0.17 ×10⁻⁶ cm/s
Caco2 Papp (10^-6 cm/sec) (Caco-2 cells): 0.17 10^-6 cm/sec

CC[C@H](C)[C@H]1C(=O)N[C@@H](Cc2ccccc2)C(=O)N2CCC[C@H]2C(=O)N(C)[C@@H](CC(C)C)C(=O)N[C@@H](COC(C)(C)C)C(=O)N(C)[C@@H](Cc2ccccc2)C(=O)N[C@@H]([C@@H](C)O)C(=O)N(C)[C@@H](CC)C(=O)N2CCC[C@H]2C(=O)N(C)[C@@H](CC(C)C)C(=O)N[C@H](C(=O)N2CCCCC2)CC(=O)N(C)CCCC(=O)N(C)[C@@H](CC(C)C)C(=O)N1C [pd118] ([NMeGABA][NMeL][NMeI]FP[NMeL]S(tBu)[NMeF]T[NMeAbu]P[NMeL]D-Piperidide; lactam N-13)
microsomal CLint at 1 µM [1]: 31.2 µL/min/mg
Mouse Hepatic Microsome CLh,int NADPH(-) [1]: 19.8 µL/min/mg Protein
Papp A→B [2]: 0.46 ×10⁻⁶ cm/s
Caco2 Papp (10^-6 cm/sec) (Caco-2 cells): 0.46 10^-6 cm/sec

CC[C@H](C)[C@H]1C(=O)N[C@@H](CC(C)C)C(=O)N(C)[C@@H](CC(C)C)C(=O)N2CCC[C@H]2C(=O)N(C)[C@@H](C(C)C)C(=O)N[C@H](C(=O)N2CCCCC2)CC(=O)N(C)[C@@H](C)C(=O)N(C)[C@@H](CC(C)C)C(=O)N[C@@H](COC(C)(C)C)C(=O)N(C)[C@@H](Cc2ccccc2)C(=O)N(C)[C@@H](CC)C(=O)N(C)[C@@H](Cc2ccccc2)C(=O)N[C@@H]([C@@H](C)O)C(=O)N1C [pd119] ([NMeA][NMeL]S(tBu)[NMeF][NMeAbu][NMeF]T[NMeI]L[NMeL]P[NMeV]D-Piperidide; lactam N-13)
microsomal CLint at 1 µM [1]: 41.2 µL/min/mg
Mouse Hepatic Microsome CLh,int NADPH(-) [1]: 34.2 µL/min/mg Protein
Papp A→B [2]: 0.5 ×10⁻⁶ cm/s
Caco2 Papp (10^-6 cm/sec) (Caco-2 cells): 0.50 10^-6 cm/sec
